Tested on: LG0703-F948-PDC spheroids with HUVEC/MSC, viability
Test: Anticancer human tumor LG0703-F948-PDC patient-derived lung adenocarcinoma cell line growth inhibition [IpAb]
Settings: for IC50: curve of first compound; for viability, T/C: stronger effect = lower value
Method in brief: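 Multi-cell spheroids of 60% tumour cells, 25% HUVEC and 15% MSC in ultra-low-attachment U-bottom wells, treated with agents combined with ipatasertib or abemaciclib. Half-log ranges top out near clinical Cmax, or 10 microM when Cmax is unknown.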

[1] = second compound 0.01 µM, first compound 0.0316 µM
[2] = second compound 0.01 µM, first compound 0.1 µM
[3] = second compound 0.01 µM, first compound 0.316 µM
[4] = second compound 0.01 µM, first compound 1 µM
[5] = second compound 0.0316 µM, first compound 0.0316 µM
[6] = second compound 0.0316 µM, first compound 0.1 µM
[7] = second compound 0.0316 µM, first compound 0.316 µM
[8] = second compound 0.0316 µM, first compound 1 µM
[9] = second compound 0.1 µM, first compound 0.0316 µM
[10] = second compound 0.1 µM, first compound 0.1 µM
[11] = second compound 0.1 µM, first compound 0.316 µM
[12] = second compound 0.1 µM, first compound 1 µM
[13] = second compound 0.316 µM, first compound 0.0316 µM
[14] = second compound 0.316 µM, first compound 0.1 µM
[15] = second compound 0.316 µM, first compound 0.316 µM
[16] = second compound 0.316 µM, first compound 1 µM
[17] = second compound 1 µM, first compound 0.0316 µM
[18] = second compound 1 µM, first compound 0.1 µM
[19] = second compound 1 µM, first compound 0.316 µM
[20] = second compound 1 µM, first compound 1 µM
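Note: spheroids exposed to compounds for seven days before readout.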
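Throughout, for viability, T/C: T/C percent relative to DMSO vehicle wells set as 100% viability.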

Row | Compound | IC50 (second compound 0.01 µM) | IC50 (second compound 0.0316 µM) | IC50 (second compound 0.1 µM) | IC50 (second compound 0.316 µM) | IC50 (second compound 1 µM) | viability, T/C [1] | viability, T/C [2] | viability, T/C [3] | viability, T/C [4] | viability, T/C [5] | viability, T/C [6] | viability, T/C [7] | viability, T/C [8] | viability, T/C [9] | viability, T/C [10] | viability, T/C [11] | viability, T/C [12] | viability, T/C [13] | viability, T/C [14] | viability, T/C [15] | further results
1 | COc1c(OCCCN2CCOCC2)ccc2c3n(c(=NC(=O)c4cnc(N)nc4)nc12)CCN3 + CCN1CCN(Cc2ccc(Nc3ncc(F)c(-c4cc(F)c5nc(C)n(C(C)C)c5c4)n3)nc2)CC1 | 36.7 nM | 32.2 nM | 30.6 nM | 25.3 nM | 17 nM | 58.3% | 20.7% | 5.32% | 3.66% | 47.6% | 22.8% | 4.08% | 3.07% | 48% | 21.2% | 5.61% | 3.57% | 43.7% | 23.7% | 9.48% | viability, T/C (second compound 0.01 µM, first compound 0.00316 µM): 101%; viability, T/C (second compound 0.01 µM, first compound 0.01 µM): 79.2%; viability, T/C (second compound 0.0316 µM, first compound 0.00316 µM): 90.4%; viability, T/C (second compound 0.0316 µM, first compound 0.01 µM): 82.8%; viability, T/C (second compound 0.1 µM, first compound 0.00316 µM): 85.4%; viability, T/C (second compound 0.1 µM, first compound 0.01 µM): 77.1%; viability, T/C (second compound 0.316 µM, first compound 0.00316 µM): 81.6%; viability, T/C (second compound 0.316 µM, first compound 0.01 µM): 71.2%; viability, T/C [16]: 9.41%; viability, T/C (second compound 1 µM, first compound 0.00316 µM): 82.3%; viability, T/C (second compound 1 µM, first compound 0.01 µM): 63%; viability, T/C [17]: 33.9%; viability, T/C [18]: 24.6%; viability, T/C [19]: 19.3%; viability, T/C [20]: 11.8%
2 | Cc1nc(NC(=O)N2CCCC2C(N)=O)sc1-c1ccnc(C(C)(C)C(F)(F)F)c1 (stereo not given) + CCN1CCN(Cc2ccc(Nc3ncc(F)c(-c4cc(F)c5nc(C)n(C(C)C)c5c4)n3)nc2)CC1 | 1480 nM | 1120 nM | 676 nM | 955 nM | 421 nM | 93.3% | 88.1% | 81.3% | 61.2% | 95.3% | 78.9% | 64.9% | 60.9% | 83.6% | 83.2% | 49.9% | 46.4% | 81.9% | 79.3% | 60.9% | viability, T/C (second compound 0.01 µM, first compound 3.16 µM): 28.8%; viability, T/C (second compound 0.01 µM, first compound 10 µM): 3.09%; viability, T/C (second compound 0.0316 µM, first compound 3.16 µM): 25.5%; viability, T/C (second compound 0.0316 µM, first compound 10 µM): 2.8%; viability, T/C (second compound 0.1 µM, first compound 3.16 µM): 33%; viability, T/C (second compound 0.1 µM, first compound 10 µM): 3.21%; viability, T/C [16]: 50.8%; viability, T/C (second compound 0.316 µM, first compound 3.16 µM): 30.6%; viability, T/C (second compound 0.316 µM, first compound 10 µM): 9.55%; viability, T/C [17]: 75.8%; viability, T/C [18]: 65.5%; viability, T/C [19]: 40.8%; viability, T/C [20]: 50%; viability, T/C (second compound 1 µM, first compound 3.16 µM): 32.6%; viability, T/C (second compound 1 µM, first compound 10 µM): 12.4%
